Read-outs that look alike come from different tables or passages of the source. Numbered stars: 1 amine (or outer) side, 2 acyl side, 3 side chain; on linkers, the order of the positions; unused ones are H or OH. Bridge positions count the residues as written; N and C are the ends. Square brackets hold non-standard residues; d marks the D form. Peptide text beside a SMILES is read from it. I, II: the chains in the order shown. γGlu = O=C(O)[C@H](CCC(=O)[*:2])N[*:1]
Columns and labels:
[1] = previous work; cited from earlier work
Text: UPF1 and UPF17 have also shown different effects in free radical scavenging experiments. According to the classification of kinetic behavior by Sánches-Moreno et al., UPF17 is classified as fast and UPF1 as intermediate DPPH radical scavenger. […] This raised a question about pKa values for the thiol groups of UPF peptides. Previously, the change of γ-peptide bond to α-peptide bond has also been investigated f ...

[2] = pKa of thiol groups, spectrophotometric titration; assay type: physicochemical; details: 50 μM peptide in phosphate buffered saline, titrated with 1 M NaOH, absorbance at 240 nm
Experimental: The ratio of thiol and thiolate concentrations were measured spectrophotometrically at 240 nm on a PerkinElmer Lambda 25 spectrometer similarly as previously for GSH and α-GSH [21]. 1 mL of 50 μM peptide solution in phosphate buffered saline (Calbiochem, USA) was titrated with 5 μL volumes of 1 M NaOH and pH and absorbance changes were determined after each addition. The results were corrected to consider the dilution of the assay mixture during titration.

K562 cells = test system: K562 cells; design: method as in PMID 17577738, PMID 15489015; details: cited from earlier work
[3] = test system: equine kidney γ-glutamyltranspeptidase; assay: Stability towards γ-glutamyltranspeptidase (HPLC-MS); details: 1 mM peptide, 0.3 mg/mL equine kidney GGT, 0.1 M Tris-HCl pH 7.4, 0.1% EDTA, 6 mM Gly-Gly acceptor, 37°C, 1 h; HPLC-MS read-out
Experimental: 6 mM Gly-Gly was added as an acceptor for γ-Glu moiety [20]. GSH was incubated with GGT under the same conditions as the control. The samples were heat-inactivated, centrifuged at 10000 g and +4°C for 5 min, and kept on ice until analyzed. Supernatants were analyzed on a Prominence HPLC (Shimadzu, Japan) and Q-Trap 3200 (Applied Biosystems, USA) mass spectrometry tandem. Luna C18 100 × 2 mm, 3 μm column from Phenomenex was used for sample separation. Solvent A was a mixture of 99.9% water and 0.1% HCOOH, and solvent B was a mixture of 99.9% acetonitrile and 0.1% HCOOH (mass spectrometry grade, Riedel-de Haėn, Germany). Samples were eluated at a flow rate of 0.1 mL/min, gradient started with 5 min at isocratic flow of solvent A, concentration of solvent B increased up to 30% in 25 min, followed by wash with 100% solvent B in 20 min. Enhanced MS scans were performed in negative mode with rate 1000 amu/s between mass range 50–1700 Da. Ionspray voltage was set to −4500 V, declustering potential to −30 V and entrance potential to −10 V.

[4] = test system: primary culture of cerebellar granule cells; design: method as in PMID 17577738, PMID 15489015; details: cited from earlier work

Structure (SMILES)	pKa of thiol group [1]	pKa of thiol group [2]	concentration up to which nontoxic for K562 cells (K562 cells) [µM]	degradation by GGT [3]	concentration up to which no toxic effect on cerebellar granule cells [4]
N[C@@H](CCC(=O)N[C@@H](CS)C(=O)NCC(=O)O)C(=O)O [GSH, γ-L-Glu-L-Cys-Gly, reference compound]	9.0 ± 0.1	9.0 ± 0.3	–	–	–
COc1ccc(C[C@H](N)C(=O)N[C@@H](CCC(=O)N[C@@H](CS)C(=O)NCC(=O)O)C(=O)O)cc1 [UPF1, Tyr(Me)-γ-Glu-Cys-Gly] (H-Y(Me)[γGlu]CG-OH)	–	9.3 ± 0.1	≤ 200	not degraded	up to 100 μM
COc1ccc(C[C@H](N)C(=O)N[C@@H](CCC(=O)O)C(=O)N[C@@H](CS)C(=O)NCC(=O)O)cc1 [UPF17, Tyr(Me)-Glu-Cys-Gly] (H-Y(Me)ECG-OH)	–	9.4 ± 0.2	≤ 200	–	–
COc1ccc(C[C@H](N)C(=O)N[C@@H](CCC(=O)N[C@@H](CSSC[C@H](NC(=O)CC[C@H](NC(=O)[C@@H](N)Cc2ccc(OC)cc2)C(=O)O)C(=O)NCC(=O)O)C(=O)NCC(=O)O)C(=O)O)cc1 [dimerised UPF1] (I: H-Y(Me)[γGlu]CG-OH / II: H-Y(Me)[γGlu]CG-OH; disulfide I:3-II:3)	–	–	–	not detected	–
N[C@@H](CCC(=O)O)C(=O)N[C@@H](CS)C(=O)NCC(=O)O [α-GSH] (H-Glu-Cys-Gly-OH)	9.1 ± 0.1	9.1 ± 0.1	–	–	–

Reference: article PMC3348524, “Diverse Effects of Glutathione and UPF Peptides on Antioxidant Defense System in Human Erythroleukemia Cells K562” (International Journal of Peptides, 2012)
